The values below come from patent publication US9149038B2, “4-amino-6-(heterocyclic)picolinates and 6-amino-2-(heterocyclic)pyrimidine-4-carboxylates and their use as herbicides” (Dow AgroSciences LLC, priority 2013, dated 2015).

For series [1], the system named is Key Broadleaf and Grass Weed as well as Crop Species. As to the kind of experiment: Post-Emergent Test I: postemergent herbicidal activity, visual phytotoxicity rating 10 days after treatment (Table 5). The format is in vivo. The following applies: 4 kg ai/ha; for Visual Growth Reduction (%) 10 Days After Application ECHCG: barnyardgrass (Echinochloa crus-galli); for pest or weed control at 4000 g/ha: post-emergence, 240 h, 10 days after application. On the procedure:
Herbicidal evaluations were made visually on a scale of 0 to 100 where 0 represents no activity and 100 represents complete plant death. Post-Emergent Test I: Seeds of test species were obtained from commercial suppliers and planted into a 5″-round pot containing soil-less media mix (Metro-Mix 360®, Sun Gro Horticulture). Postemergence treatments were planted 8-12 days (d) prior to application and cultured in a greenhouse equipped with supplemental light sources to provide a 16 h photoperiod at 24-29° C. All pots were surface irrigated. Approximately 10 milligrams (mg) of each compound were dissolved in 1.3 mL acetone-DMSO (97:3, volume per volume (v/v)) and diluted with 4.1 mL water-isopropanol-crop oil concentrate (78:20:2, v/v/v) containing 0.02% Triton X-155. Treatments were serial diluted with the above formulation solvent to provide 1.85, 0.926, 0.462 and 0.231 milligrams per milliliter (mg/mL) of test compound delivered in 2.7 mL/pot (roughly equivalent to 4.0, 2.0, 1.0, and 0.5 kg/ha, respectively). Formulated compounds were applied using a DeVilbiss® compressed air sprayer at 2-4 pounds per square inch (psi). Following treatment, pots were returned to the greenhouse for the duration of the experiment. All pots were sub-irrigated as needed to provide optimum growing conditions. All pots were fertilized one time per week by subirrigating with Peters Peat-Lite Special® fertilizer (20-10-20). Phytotoxicity ratings were obtained 10 days after treatment postemergence applications. All evaluations were made visually on a scale of 0 to 100 where 0 represents no activity and 100 represents complete plant death and are presented as indicated in Table 4.

Series [2] deals with Key Broadleaf Weed and Crop Species. As to the kind of experiment: Post-Emergent Test II: postemergent herbicidal activity, visual rating after 14 d (Table 7). It is filed as in vivo. The following applies: post-emergence, 336 h, 140 g ai/ha. In outline: (§1)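 Visual scoring at 14 d, 0 (no injury) to 100 (complete kill), relative to untreated plants. Postemergent overhead track-sprayer application, 187 L/ha, at a top rate plus serial ½×–1/16× rates, to plants grown 7–21 d at about 23–29° C day under a 15 h photoperiod, then subirrigated.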

Series [3] deals with Key Grass and Sedge Weeds as well as Grass Crops. As to the kind of experiment: Post-Emergent Test II: postemergent herbicidal activity, visual rating after 14 d (Table 8). It is filed as in vivo. The following applies: post-emergence, 336 h, 140 g ai/ha. The method in brief:
as §1

[4] abbreviates: giant foxtail (Setaria faberi), read-out: Visual Growth Reduction (%) 10 Days After Application SETFA.
The mark [5] stands for this setting: ivyleaf morningglory (Ipomoea hederecea), read-out: Visual Growth Reduction (%) 10 Days After Application IPOHE.
Setting [6] is: sunflower (Helianthus annuus), read-out: Visual Growth Reduction (%) 10 Days After Application HELAN.
Where [7] appears, read: wild oats (Avena fatua), read-out: Visual Growth Reduction (%) 10 Days After Application AVEFA.
[8] abbreviates: ABUTH: velvetleaf (Abutilon theophrasti), read-out: Visual Growth Reduction (%) 14 Days After Application ABUTH.
Setting [9] is: AMARE: redroot pigweed (Amaranthus retroflexus), read-out: Visual Growth Reduction (%) 14 Days After Application AMARE.
Where [10] appears, read: BRSNN: oilseed rape, canola (Brassica napus), read-out: Visual Growth Reduction (%) 14 Days After Application BRSNN.
The mark [11] stands for this setting: CHEAL: lambsquarters (Chenopodium album), read-out: Visual Growth Reduction (%) 14 Days After Application CHEAL.
[12] abbreviates: EPHHL: wild poinsettia (Euphorbia heterophylla), read-out: Visual Growth Reduction (%) 14 Days After Application EPHHL.
The mark [13] stands for this setting: HELAN: sunflower (Helianthus annuus), read-out: Visual Growth Reduction (%) 14 Days After Application HELAN.
The mark [14] stands for this setting: barnyardgrass (Echinochloa crus-galli), read-out: Visual Growth Reduction (%) 14 Days After Application, ECHCG.
Where [15] appears, read: giant foxtail (Setaria faberi), read-out: Visual Growth Reduction (%) 14 Days After Application, SETFA.
Where [16] appears, read: maize, corn (Zea mays), read-out: Visual Growth Reduction (%) 14 Days After Application, ZEAMX.
[17] abbreviates: rice (Oryza sativa), read-out: Visual Growth Reduction (%) 14 Days After Application, ORYSA.
Where [18] appears, read: wheat, spring (Triticum aestivum), read-out: Visual Growth Reduction (%) 14 Days After Application, TRZAS.
The mark [19] stands for this setting: yellow nutsedge (Cyperus esculentus), read-out: Visual Growth Reduction (%) 14 Days After Application, CYPES.

Read-outs that look alike come from different tables or passages of the source.

Take `C=Cc1c(C(=O)OC)nc(-c2ccc3c(c2)OC(F)(F)O3)c(F)c1N` [Compound 29]: the melting point fell in the range of 112 to 114 °C.
For `COc1cc2c(cc1-c1cc(N)c(Cl)c(C(=O)O)n1)OC(F)(F)O2` [Compound 39], the melting point is 165 to 166 °C.
Consider `COC(=O)c1nc(-c2cc(F)c3c(c2)OC(F)(F)O3)cc(N)c1Cl` [Compound 43], for which the melting point lay within 176 to 177 °C.
On the same count and under the same terms, next, `COC(=O)c1nc(-c2cc3c(cc2F)OC(F)(F)O3)c(C)c(N)c1Cl` [Compound 50]: 162 to 165 °C.
Regarding `Cc1c(-c2cc3c(cc2F)OC(F)(F)O3)nc(C(=O)O)c(Cl)c1N` [Compound 51], in series [1], the “Visual Growth Reduction (%) 10 Days After Application ECHCG” value is “G (0-29)”. Further, the pest or weed control at 4000 g/ha lay within 0 to 29% in series [1] (setting [4]), 0 to 29% in series [1] (setting [5]), 60 to 74% in series [1] (setting [6]) and 0 to 29% in series [1] (setting [7]).
Consider `COC(=O)c1nc(-c2ccc3c(c2F)OC(F)(F)O3)c(C)c(N)c1Cl` [Compound 53], for which the melting point lay in the range of 153.5 to 155 °C.
As to `Cc1c(-c2ccc3c(c2F)OC(F)(F)O3)nc(C(=O)O)c(Cl)c1N` [Compound 54], the “Visual Growth Reduction (%) 10 Days After Application ECHCG” value in series [1] was “G (0-29)”. For the same compound, the pest or weed control at 4000 g/ha in series [1] (setting [4]) lay in the range of 0 to 29%; in series [1] (setting [5]), 0 to 29%; in series [1] (setting [6]), 60 to 74%; in series [1] (setting [7]), 0 to 29%.
The compound `COC(=O)c1nc(-c2ccc3c(c2F)OC(F)(F)O3)nc(N)c1OC` [Compound 65] registered a melting point of 109 to 111 °C.
Same read-out and setting: next, `Nc1cc(-c2cccc3c2OC(F)(F)O3)nc(C(=O)O)c1Cl` [Compound 85]: 170 °C.
With `COC(=O)c1nc(-c2ccc3c(c2)CCN3C)c(F)c(N)c1Cl` [Compound 107], the pest or weed control at 140 g/ha is 60 to 74% in series [2] (setting [8]); 0 to 29% in series [2] (setting [9]); 0 to 29% in series [2] (setting [10]); 85 to 94% in series [2] (setting [11]); 95 to 100% in series [2] (setting [12]); 0 to 29% in series [2] (setting [13]). The pest or weed control at 140 g/ha in series [3] (setting [14]), in series [3] (setting [15]), in series [3] (setting [16]), in series [3] (setting [17]), in series [3] (setting [18]) and in series [3] (setting [19]) was 0 to 29% throughout.
As to `CN1CCc2cc(-c3nc(C(=O)O)c(Cl)c(N)c3F)ccc21` [Compound 108], the pest or weed control at 140 g/ha in series [2] (setting [8]) is 0 to 29%; in series [2] (setting [9]), 0 to 29%; in series [2] (setting [10]), 0 to 29%; in series [2] (setting [11]) it was 60 to 74%; in series [2] (setting [12]), 0 to 29%; in series [2] (setting [13]), 60 to 74%. Further, the pest or weed control at 140 g/ha fell in the range of 75 to 84% in series [3] (setting [14]); 0 to 29% in series [3] (setting [15]); 0 to 29% in series [3] (setting [16]); 0 to 29% in series [3] (setting [17]); 0 to 29% in series [3] (setting [18]); 0 to 29% in series [3] (setting [19]).

The melting point is the temperature of the solid-liquid transition.
